Test results: BigSolDB 2.1

Clc1ncnc2[nH]ccc12
solubility (mole fraction)
Settings | 278.15 K | 283.15 K | 288.15 K | 293.15 K | 298.15 K | 303.15 K | 308.15 K | 313.15 K | 318.15 K | 323.15 K
in THF | 0.0461 | 0.0501 | 0.0544 | 0.0594 | 0.0644 | 0.0699 | 0.0757 | 0.0818 | 0.0881 | 0.0954
in acetone | 0.0146 | 0.0165 | 0.0187 | 0.021 | 0.0238 | 0.0265 | 0.0296 | 0.0331 | 0.0368 | 0.0409
in acetonitrile | 0.00218 | 0.00277 | 0.00338 | 0.00413 | 0.00502 | 0.00615 | 0.00736 | 0.00881 | 0.0104 | 0.0124
in ethanol | 0.00849 | 0.0098 | 0.0113 | 0.0131 | 0.0151 | 0.0174 | 0.0199 | 0.0225 | 0.0256 | 0.0291
in ethyl acetate | 0.0132 | 0.0151 | 0.0172 | 0.0194 | 0.0218 | 0.0246 | 0.0274 | 0.0307 | 0.034 | 0.0376
in isopropanol | 0.00973 | 0.0113 | 0.0131 | 0.0151 | 0.0174 | 0.0198 | 0.0226 | 0.0258 | 0.0291 | 0.0328
in methanol | 0.0065 | 0.00781 | 0.0093 | 0.011 | 0.013 | 0.0152 | 0.0177 | 0.0205 | 0.0236 | 0.0272
in n-butanol | 0.0122 | 0.0139 | 0.0157 | 0.0179 | 0.0202 | 0.0227 | 0.0254 | 0.0285 | 0.0317 | 0.0354
in n-heptane | 0.000583 | 0.00075 | 0.00095 | 0.0012 | 0.0015 | 0.00187 | 0.00229 | 0.00281 | 0.00343 | 0.00415
in n-hexane | 0.000393 | 0.000511 | 0.000652 | 0.000851 | 0.00106 | 0.00132 | 0.00165 | 0.00202 | 0.0025 | 0.00306
in n-propanol | 0.0098 | 0.0114 | 0.0134 | 0.0155 | 0.018 | 0.0205 | 0.0235 | 0.0269 | 0.0305 | 0.0347
in toluene | 0.000808 | 0.000993 | 0.00124 | 0.00153 | 0.00186 | 0.00225 | 0.00272 | 0.00324 | 0.00387 | 0.00461
